Experimental data: patent US12324568B2, “Mouthwash to deliver dyes for dental imaging” (BOARD OF SUPERVISORS OF LOUISIANA STATE UNIVERSITY AND …, priority 2020, dated 2025)
Like-named read-outs stand apart in the source and are kept apart here.

How the values were obtained:
[1] = test system: rat molars (erupted P31, unerupted P14); experiment: ICG-assisted NIR dental imaging after subcutaneous injection in rat model; type: in vivo, Sprague Dawley rats
Procedure: (§1) Self-breed Sprague Dawley rats, including eight postnatal day 31 (P31) and two P21 rats for erupted molars and sixteen P14 rats for unerupted molars, were utilized. To simulate the mouthwash with living rats, 10 μL ICG solution (1 mg/ml) was pipetted into the mouth of two P31 rats in vivo, and the rats were euthanized after 2 minutes. The other two P21 went through the same in vivo mouthwash procedure and euthanized after 1 minute. In addition, the mandibles were dissected from another two P31 rats directly after euthanasia, then washed with 10 μL ICG (1 mg/ml) solution ex vivo for 10 minutes. For the subcutaneous injection, every two P31 rats were euthanized at each time points 10 minutes and 24 hours, for the ICG injection on the back (5 mg/kg body weight). For the unerupted molars, two rats were sacrificed 1 minute after in vivo mouthwash, and the same for the erupted molars. To study concentration effect on imaging, 0.1, 0.5, 1, and 5 mg/kg of ICG were injected into eight P14 rats (two rats for each dosage, and euthanized for each concentration 4 hours after injection). For P14 rats to study imaging windows, two rats were euthanized at 10 minutes, 4 hours and 48 hours for posting ICG injection (5 mg/kg) respectively.
The imaging system is depicted in FIG. 1(A). A 785 nm laser source shined to the mandibles with fiber and filters, a NIR camera received the videos, and videos were recorded by computer. The mandibles were then extracted and imaged using ICG-assisted endoscopic NIR dental imaging, as described in previous publications.^29-31 In the endoscopic imaging, an output fiber was connected to the endoscope with a camera.^30 All experiments were approved by the Institutional Animal Care and Use Committee (IACUC) of Louisiana State University (Protocol #16-117) and followed the ethical guidelines of animal care.
Meanwhile, endoscopic imaging provided clearer morphologies of the first and second molars than wide-field imaging. The lingual and occlusal cusps of the molars could be easily distinguished, especially for the mouthwash treatment (FIG. 1(B)). As described in previous work,^29, 30 the intensity-mean difference Dmean_diff (IMD) was used as the image contrast for the quantitative evaluation of the target and background. To further reveal the efficiency of the mouthwash and local injection, a sampling line (yellow lines in FIG. 1) covering both molar regions and the surrounding tissues was used to calculate the image contrast of the molar and surrounding tissues.

[2] = test system: rat molars (erupted P31, unerupted P14); conditions: rat model, previous work, cited from earlier work
rat molars = experiment: ICG-assisted NIR dental imaging with in vivo mouthwash in living rats; set-up: species or system Sprague Dawley rats; conditions: rat model
Procedure: as §1, with “To study concentration effect on imaging, 0.1, 0.5, 1, and 5 mg/kg of ICG were injected into eight P14 rats (two rats for each dosage, and euthanized for each concentration 4 hours after injection). For P14 rats to study imaging windows, two rats were euthanized at 10 minutes, 4 hours and 48 hours for posting ICG injection (5 mg/kg) respectively.” left out
The imaging system is depicted in FIG. 1(A). A 785 nm laser source shined to the mandibles with fiber and filters, a NIR camera received the videos, and videos were recorded by computer. […]
Meanwhile, endoscopic imaging provided clearer morphologies of the first and second molars than wide-field imaging. […] As described in previous work,^29, 30 the intensity-mean difference Dmean_diff (IMD) was used as the image contrast for the quantitative evaluation of the target and background. […]

## CC1(C)C(/C=C/C=C/C=C/C=C2\N(CCCCS(=O)(=O)O)c3ccc4ccccc4c3C2(C)C)=[N+](CCCCS(=O)(=O)[O-])c2ccc3ccccc3c21 [ICG, indocyanine green]
[1]; erupted molars (P31 rat), 24 hours after ICG injection
  visibility of dental structures: no dental structures could be observed
[1]; erupted molars (P31 rat), subcutaneous injection, imaging window 10 minutes
  visibility of dental structures: clearly observable
[1]; subcutaneous injection, P14 rats (FIG. 9)
  minimal dye dosage to achieve recognizable anatomical imaging: 0.1 mg/kg (body weight)
[1]; unerupted molars (P14 rats), imaging window 48 hours
  visibility of dental structures: could still be observed
[2]; erupted molars
  imaging window: 4 h
[2]; unerupted molar
  imaging window: about 96 hours
Rat molars
  time to achieve the same image contrast: 1 to 2 min
